Data on one substance can be found in article PMC11187126, “Structure and dynamics of the pyroglutamylated RF-amide peptide QRFP receptor GPR103” (Nature Communications, 2024).

Read-outs that look alike come from different tables or passages of the source. No end group written: not given here.

In general, EC50 refers to the midpoint of the concentration-response curve. Low values mean higher potency in that assay, high ones lower potency in that assay.

This experiment concerns the target T1, GPR103 Y29N-termA (Homo sapiens, UniProt Q96P65, Y29A).
T1 construct: we used human full-length QRFPR-encoding plasmids; expressed in transfected cells; host or cells: HEK293 cells, pCAGGS vector
T1 sequence (Q96P65 1-431 Y29A): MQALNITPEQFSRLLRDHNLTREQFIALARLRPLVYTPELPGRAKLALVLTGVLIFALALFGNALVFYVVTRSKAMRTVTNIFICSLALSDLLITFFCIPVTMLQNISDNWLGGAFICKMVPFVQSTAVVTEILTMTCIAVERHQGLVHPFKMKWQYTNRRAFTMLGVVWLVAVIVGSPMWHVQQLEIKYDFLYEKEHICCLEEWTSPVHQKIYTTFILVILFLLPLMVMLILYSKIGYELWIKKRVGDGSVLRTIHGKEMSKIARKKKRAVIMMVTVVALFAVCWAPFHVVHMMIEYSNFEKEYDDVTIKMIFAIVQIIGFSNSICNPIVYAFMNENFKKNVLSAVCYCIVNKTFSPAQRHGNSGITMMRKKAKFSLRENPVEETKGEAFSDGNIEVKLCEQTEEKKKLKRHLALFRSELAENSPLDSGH
Kind of experiment: TGFα shedding assay; Exp. level WT (1:20). In kind it is cell-based.

With TSGPLGNLAEELNGYSRKKGGFSFRF-NH2 [QRFP26], the Emax by setting is: (Exp. #1) 95.50 % WT; (Exp. #2) 84.01 % WT; (Exp. #3) 93.81 % WT; (mean, read-out: Emax) 91.1%; (n = 3, read-out: Emax) 94 ± 2.9%. The substance also had an EC50 (n = 3) of 0.269 µM.
